The values below come from publication PMC4231100, “Cerebral Artery Alpha-1 AR Subtypes: High Altitude Long-Term Acclimatization Responses” (PLoS ONE, 2014).

In test [1] the target is T1, α1A-AR (Ovis aries, UniProt A0ACI6NWI5).
T1 construct: gene ADRA1A
T1 sequence (A0ACI6NWI5 1-466): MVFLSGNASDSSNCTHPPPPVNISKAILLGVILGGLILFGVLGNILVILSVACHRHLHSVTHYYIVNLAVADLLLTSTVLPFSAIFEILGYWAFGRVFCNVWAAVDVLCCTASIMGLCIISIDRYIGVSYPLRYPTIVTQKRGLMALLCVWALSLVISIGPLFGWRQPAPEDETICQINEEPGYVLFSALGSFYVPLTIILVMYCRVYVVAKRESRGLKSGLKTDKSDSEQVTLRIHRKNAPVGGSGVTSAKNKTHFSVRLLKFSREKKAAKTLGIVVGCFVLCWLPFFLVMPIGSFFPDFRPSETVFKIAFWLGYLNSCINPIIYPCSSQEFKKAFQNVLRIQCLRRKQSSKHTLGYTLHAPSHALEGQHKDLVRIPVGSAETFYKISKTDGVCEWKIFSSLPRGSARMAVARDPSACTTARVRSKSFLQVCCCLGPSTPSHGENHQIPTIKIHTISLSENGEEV
As to the kind of experiment: functional antagonism (KB) of phenylephrine-induced contraction in isolated arteries.

The target in test [2] is T2, α1D-AR (Ovis aries, UniProt A0ACI6RHM3).
T2 construct: gene ADRA1D
T2 sequence (A0ACI6RHM3 1-564): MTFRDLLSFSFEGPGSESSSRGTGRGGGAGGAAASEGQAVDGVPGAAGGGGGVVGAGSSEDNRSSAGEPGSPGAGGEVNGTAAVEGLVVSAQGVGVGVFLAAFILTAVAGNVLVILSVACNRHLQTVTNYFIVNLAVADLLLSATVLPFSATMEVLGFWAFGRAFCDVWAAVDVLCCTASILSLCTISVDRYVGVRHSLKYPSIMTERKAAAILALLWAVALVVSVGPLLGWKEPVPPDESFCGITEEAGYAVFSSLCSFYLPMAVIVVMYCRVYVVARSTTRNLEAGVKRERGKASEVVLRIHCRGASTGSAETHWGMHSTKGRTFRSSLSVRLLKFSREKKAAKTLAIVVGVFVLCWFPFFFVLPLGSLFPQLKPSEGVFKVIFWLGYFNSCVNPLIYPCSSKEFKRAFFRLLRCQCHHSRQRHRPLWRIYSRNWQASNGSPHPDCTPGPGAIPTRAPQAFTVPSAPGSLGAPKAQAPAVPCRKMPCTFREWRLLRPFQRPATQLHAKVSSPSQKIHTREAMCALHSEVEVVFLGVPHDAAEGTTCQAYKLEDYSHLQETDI
The description is as above.

Where a name gives a salt, the structure may show the parent alone.

Molecule `COc1cccc(OC)c1OCCNCC1COc2ccccc2O1` (centres unmarked) [WB, 2-([2,6-Dimethoxyphenoxyethyl]a-minomethyl)-1,4-benzodioxane hydrochloride] returned an antagonist dissociation constant (Kb) in test [1] of 11 nM.

For `COc1ccccc1N1CCN(CCN2C(=O)CC3(CCCC3)CC2=O)CC1` [BMY, 8-(2-[4-(2-Methoxyphenyl)-1-piperazinyl]ethyl)-8-azaspiro(4.5)decane-7,9-dione], the Kb in test [2] was 6.7 nM.
